Where two headings read alike, the source gives them in different places.
Tests used:
human GAL3 receptor = target: T1, human GAL3 receptor (Homo sapiens, UniProt O60755); test: Radioligand binding at cloned human GAL3 receptor
T1 construct: expressed in transfected cells
T1 sequence (O60755 1-368): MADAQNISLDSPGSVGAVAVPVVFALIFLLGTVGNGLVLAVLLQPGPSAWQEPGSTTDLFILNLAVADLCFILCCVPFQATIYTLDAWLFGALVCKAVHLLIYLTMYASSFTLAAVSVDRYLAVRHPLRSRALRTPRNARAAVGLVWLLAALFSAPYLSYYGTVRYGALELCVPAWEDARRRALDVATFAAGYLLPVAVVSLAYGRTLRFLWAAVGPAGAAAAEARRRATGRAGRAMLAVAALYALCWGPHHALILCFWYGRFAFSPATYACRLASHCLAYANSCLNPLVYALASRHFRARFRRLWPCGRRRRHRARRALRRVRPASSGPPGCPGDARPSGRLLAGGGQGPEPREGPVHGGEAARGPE
Procedure, shortened: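 Compound vehicle, as final assay concentration, was 3% DMSO (indolones) or 1% ethanol/0.09% polypuronic acid F-127 (pyrimidines). Binding measured on fresh or frozen membranes of stably transfected LM(tk-) mouse fibroblasts carrying cloned human GAL3, in pH 7.4 HEPES buffer; values derived by nonlinear regression.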

human 5HT1D = target: T2, human 5HT1D (Homo sapiens, UniProt P28221); test: Radioligand binding, 5HT1D receptor ([3H]-serotonin)
T2 construct: expressed in transfected cells
Method: Human 5HT1B, 5HT1D, 5HT1E, 5HT1F, and 5HT7 Receptors: The cell lysates of LM(tk-) clonal cell line stably transfected with the genes encoding each of these 5HT receptor-subtypes were prepared as described above. Cell membranes were suspended in 50mM Tris-HCl buffer (pH 7.4 at 37°C) containing 10 mM MgCl2, 0.2 mM EDTA, 10 µM pargyline, and 0.1% ascorbate. […] Nonspecific binding was determined in the presence of 10 µM serotonin. The bound radioligand was separated by filtration through GF/B filters using a cell harvester.
(§1) Binding data were analyzed using nonlinear regression and statistical techniques available in the GraphPAD Prism package (San Diego, CA). Enzymatic assay data were derived from a standard curve of reference compound data.

DA transporter = DA transporter (Rattus norvegicus, UniProt P23977); test: Binding at native DA transporter
Method: The binding properties of the compounds of the present invention were evaluated at one or more cloned receptors or native, tissue-derived transporters, using protocols described below.
The methods to determine binding affinity at native transporters are described in the following publications: 5HT transporter and NE transporter (Owens et al., 1997), and DA transporter (Javitch et al, 1984).
as §1

human dopamine D2 = target: T3, human dopamine D2 (Homo sapiens, UniProt P14416); test: Radioligand binding, dopamine D2 receptor
T3 construct: purchased BioSignal, Inc. (Montreal, Canada)
Excerpt: Other receptors: Cell membranes expressing human dopamine D1, D2, D4 and rat D3 receptors were purchased through BioSignal, Inc. (Montreal, Canada). Binding assays using the histamine H1 receptor; dopamine receptors; and α1A, α1E, and α2 adrenergic receptors may be carried out according to the procedures described in U.S. Patent No. 5,780,485, the disclosure of which is hereby incorporated by reference in its entirety into this application. Binding assays using the dopamine D5 receptor may be carried out according to the procedures described in U.S. Patent No. 5,882,855, the disclosure of which is hereby incorporated by reference in its entirety into this application. Binding assays for the human α1D adrenergic receptor may be carried out according to the procedures described in U.S. Patent No. 6,156,518, the disclosure of which is hereby incorporated by reference in its entirety into this application.
as §1

[1] = indolones, cloned human receptor, read-out: Ki GalR3
[2] = Table 8; Ki h5HT1D divided by Ki hGAL3
[3] = Table 7; native transporter, head prints r (rat); read-out: rDA Uptk Ki
[4] = Table 8; Ki rDA Uptk divided by Ki hGAL3
[5] = Table 10; Ki hD2 divided by Ki hGAL3
[6] = pyrimidines, cloned human receptor, read-out: Ki GalR3

T2 sequence (P28221 whole entry): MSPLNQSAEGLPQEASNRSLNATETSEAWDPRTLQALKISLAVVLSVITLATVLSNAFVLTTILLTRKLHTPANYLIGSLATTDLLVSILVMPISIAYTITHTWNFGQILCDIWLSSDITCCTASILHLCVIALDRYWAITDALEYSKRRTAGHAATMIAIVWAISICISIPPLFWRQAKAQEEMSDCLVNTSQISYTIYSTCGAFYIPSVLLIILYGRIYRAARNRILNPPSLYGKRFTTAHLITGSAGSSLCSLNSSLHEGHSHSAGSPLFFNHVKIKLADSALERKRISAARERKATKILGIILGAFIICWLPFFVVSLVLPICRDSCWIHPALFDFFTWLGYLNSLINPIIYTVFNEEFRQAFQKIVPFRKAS
T3 sequence (P14416 whole entry): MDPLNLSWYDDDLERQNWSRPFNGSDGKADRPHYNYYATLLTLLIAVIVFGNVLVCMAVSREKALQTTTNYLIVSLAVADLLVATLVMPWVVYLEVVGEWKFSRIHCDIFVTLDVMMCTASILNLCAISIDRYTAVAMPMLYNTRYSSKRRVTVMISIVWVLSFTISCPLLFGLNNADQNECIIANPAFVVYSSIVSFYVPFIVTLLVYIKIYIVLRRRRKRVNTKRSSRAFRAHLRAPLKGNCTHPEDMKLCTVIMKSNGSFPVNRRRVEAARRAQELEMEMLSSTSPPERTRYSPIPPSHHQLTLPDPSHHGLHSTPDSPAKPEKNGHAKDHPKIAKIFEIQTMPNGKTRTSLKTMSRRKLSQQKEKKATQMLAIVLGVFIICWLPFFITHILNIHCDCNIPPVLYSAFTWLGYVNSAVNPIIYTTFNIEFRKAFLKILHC
DA transporter, sequence (P23977 whole entry): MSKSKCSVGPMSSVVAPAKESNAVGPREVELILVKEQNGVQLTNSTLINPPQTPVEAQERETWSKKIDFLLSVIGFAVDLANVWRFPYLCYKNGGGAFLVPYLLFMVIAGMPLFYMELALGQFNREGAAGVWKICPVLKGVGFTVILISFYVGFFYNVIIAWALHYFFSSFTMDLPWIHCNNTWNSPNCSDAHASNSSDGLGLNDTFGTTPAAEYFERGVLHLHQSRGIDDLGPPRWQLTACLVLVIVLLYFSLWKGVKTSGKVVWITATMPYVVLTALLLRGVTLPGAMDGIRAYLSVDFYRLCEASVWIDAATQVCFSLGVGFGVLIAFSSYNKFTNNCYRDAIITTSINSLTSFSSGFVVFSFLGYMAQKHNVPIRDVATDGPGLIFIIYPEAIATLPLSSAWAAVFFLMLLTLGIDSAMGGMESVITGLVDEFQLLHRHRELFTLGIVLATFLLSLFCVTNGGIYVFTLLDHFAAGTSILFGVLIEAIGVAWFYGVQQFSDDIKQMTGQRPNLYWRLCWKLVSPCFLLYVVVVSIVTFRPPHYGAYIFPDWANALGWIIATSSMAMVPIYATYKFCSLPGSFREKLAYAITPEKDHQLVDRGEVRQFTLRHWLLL

SMILES	Ki (human GAL3 receptor; Table 7, read-out: hGAL3 Ki)	Ki (human GAL3 receptor; Table 9, read-out: hGAL3 Ki)	Ki (human GAL3 receptor; [1])	Ki (human 5HT1D; Table 7; read-out: h5HT1D Ki)	selectivity ratio h5HT1D (human 5HT1D; [2])	Ki (DA transporter; [3])	selectivity ratio rDA Uptk (DA transporter; [4])	Ki (human dopamine D2; Table 9; read-out: hD2 Ki)	selectivity ratio hD2 (human dopamine D2; [5])	Ki (human GAL3 receptor; [6])	Ki (human GAL3 receptor; read-out: Ki GalR3, pyrimidines, cloned human receptor)	Ki (human GAL3 receptor; read-out: hGAL3 Ki, Table 7)	Ki (human GAL3 receptor; read-out: hGAL3 Ki, Table 9)	Ki (human 5HT1D; read-out: h5HT1D Ki; Table 7)	Ki (DA transporter; read-out: rDA Uptk Ki; Table 7; native transporter, head prints r (rat))	Ki (human dopamine D2; read-out: hD2 Ki; Table 9)	GAL1/GAL3 Ki ratio (human GAL3 receptor; Ki at GAL1 divided by Ki at human GAL3)
O=C1C(=Nc2cccc(Cl)c2)c2ccccc2N1c1ccccc1 [Example 94, 3-[(3-CHLOROPHENYL)IMINO]-1-PHENYL-1,3-DIHYDRO-2H-INDOL-2-ONE]	0.049 µM	0.049 µM	0.049 µM	10.8 µM	>100	2.2 µM	>130	6.25 µM	>100	–	–	–	–	–	–	–	–
COc1cccc(Nc2cc(N3CCCCC3)nc(N(C)CCc3c[nH]c4ccccc34)n2)c1 [Example 17]	0.087 µM	0.087 µM	–	1.03 µM	12	27.2 µM	>100	1.81 µM	21	0.087 µM	–	–	–	–	–	–	–
Cc1ccc(Nc2cc(N3CCCCC3)nc(N(C)CCc3ccccc3)n2)cc1 [Example 22]	0.028 µM	0.028 µM	–	1.85 µM	>30	7.48 µM	>100	1.5 µM	>30	0.028 µM	–	–	–	–	–	–	–
O=C1C(=Nc2ccc(Br)cc2)c2ccccc2N1c1ccccc1 [Example 98, 3-[(4-BROMOPHENYL)IMINO]-1-PHENYL-1,3-DIHYDRO-2H-INDOL-2-ONE]	0.038 µM	0.038 µM	0.038 µM	9.12 µM	>100	7.43 µM	>100	3.79 µM	>100	–	–	–	–	–	–	–	–
COC[C@@H]1[C@@H](c2ccccc2)OCCN1c1nc(Nc2ccc(C)cc2)cc(N2CCCCC2)n1 [Example 49]	–	–	–	–	>30	–	10	–	28	–	0.211 µM	0.211 µM	0.211 µM	16.9 µM	2.01 µM	5.94 µM	–
O=C1C(=Nc2ccc(C(F)(F)F)cc2)c2ccccc2N1c1ccccc1 [Example 95, 1-PHENYL-3-[[4-(TRIFLUOROMETHYL)PHENYL]IMINO]-1,3-DIHYDRO-2H-INDOL-2-ONE]	0.029 µM	0.029 µM	0.029 µM	16 µM	>100	12 µM	>100	9.72 µM	>100	–	–	–	–	–	–	–	–
CN(C)c1cc(Nc2ccc(Cl)c(Cl)c2)nc(Nc2ccccc2)n1 [Example 60]	0.086 µM	0.086 µM	–	9.2 µM	>100	14.5 µM	>100	26.8 µM	>100	0.086 µM	–	–	–	–	–	–	–
O=C1C(=Nc2cc(Cl)cc(Cl)c2)c2ccccc2N1c1ccccc1 [Example 103, 3-[(3,5-DICHLOROPHENYL)IMINO]-1-PHENYL-1,3-DIHYDRO-2H-INDOL-2-ONE]	–	–	0.068 µM	–	–	–	–	–	–	–	–	–	–	–	–	–	–
O=C1C(=Nc2cccc(C(F)(F)F)c2)c2ccccc2N1c1ccccc1 [Example 92, 1-PHENYL-3- [[3-(TRIFLUOROMETHYL)PHENYL]IMINO]-1,3-DIHYDRO-2H-INDOL-2-ONE]	–	–	–	–	>100	–	>100	–	>100	–	–	–	–	–	–	–	–
Cc1ccc(Nc2cc(N3CCCCC3)nc(N3CCN(c4ncccc4C(F)(F)F)CC3)n2)cc1 [Example 34]	0.023 µM	0.023 µM	–	2.98 µM	>100	3.9 µM	>100	2.5 µM	>100	0.023 µM	–	–	–	–	–	–	39
CN(CCc1c[nH]c2ccccc12)c1nc(Nc2ccc(F)c(F)c2)cc(N2CCCCC2)n1 [Example 15]	0.073 µM	0.073 µM	–	1.27 µM	17	24.5 µM	>100	2.18 µM	30	0.073 µM	–	–	–	–	–	–	–
Cc1ccc(Nc2cc(N(C)C)nc(N(C)CCc3c[nH]c4ccccc34)n2)cc1 [Example 77]	0.079 µM	0.079 µM	–	0.716 µM	9	2.79 µM	>30	0.91 µM	11	0.079 µM	–	–	–	–	–	–	–
O=C1C(=Nc2ccc(Cl)cc2)c2ccccc2N1c1ccccc1 [Example 97, 3-[(4-CHLOROPHENYL)IMINO]-1-PHENYL-1,3-DIHYDRO-2H-INDOL-2-ONE]	0.051 µM	0.051 µM	0.051 µM	14.2 µM	>100	8.44 µM	>100	> 50 µM	>100	–	–	–	–	–	–	–	–
Cc1ccc(Nc2cc(N3CCCCC3)nc(N(C)CCc3c[nH]c4ccccc34)n2)cc1 [Example 11]	0.091 µM	0.091 µM	–	0.102 µM	1	5.43 µM	>30	0.782 µM	9	0.091 µM	–	–	–	–	–	–	–
